How the values were obtained:
[1] = mn = molality of the nth substance listed, in mol/kg; conditions: 75 kPa, Liquid; for viscosity: Capillary tube (Ostwald / Ubbelohde) method; for mass density: Vibrating tube method; for speed of sound: Frequency=3 MHz, Sing-around technique in a fixed-path interferometer
[2] = 75 kPa, Liquid; for viscosity: Capillary tube (Ostwald / Ubbelohde) method

O [water] + CCC(N)C(=O)O
[1], m2 = 0
Conditions	mass density [kg/m3]	speed of sound [m/s]	viscosity [mPa·s]
293.15 K	–	–	1.003
298.15 K	–	–	0.89
303.15 K	–	–	0.798
308.15 K	994.063	–	0.72
313.15 K	–	1529	0.653

O [water] + [Cl-].[Na+]
[1], m2 = 0
Conditions	mass density [kg/m3]	speed of sound [m/s]	viscosity [mPa·s]
293.15 K	–	–	1.003
298.15 K	–	–	0.89
303.15 K	–	–	0.798
308.15 K	994.063	–	0.72
313.15 K	–	1529	0.653

[Cl-].[Na+] [sodium chloride] + O
[1]
Conditions	mass density [kg/m3]	speed of sound [m/s]	viscosity [mPa·s]
293.15 K, m1 = 0.1502	1004.43	1492.5	1.011
293.15 K, m1 = 0.3004	1010.4	1502	1.018
293.15 K, m1 = 0.5002	1018.11	1514.4	1.034
293.15 K, m1 = 0.7001	1026.19	1526.9	1.059
298.15 K, m1 = 0.1502	1003.21	1506.2	0.891
298.15 K, m1 = 0.3004	1008.89	1515.3	0.908
298.15 K, m1 = 0.5002	–	1527.3	0.933
298.15 K, m1 = 0.7001	1024.85	1539.2	0.95
303.15 K, m1 = 0.1502	1001.74	1518.1	0.791
303.15 K, m1 = 0.3004	1007.39	1527	0.814
303.15 K, m1 = 0.5002	1015.58	1538.6	0.835
303.15 K, m1 = 0.7001	1023.12	1550.2	0.852
308.15 K, m1 = 0.1502	1000.1	–	0.712
308.15 K, m1 = 0.3004	1005.86	1537.1	0.738
308.15 K, m1 = 0.5002	–	1548.3	0.755
308.15 K, m1 = 0.7001	1021.53	1559.5	0.768
313.15 K, m1 = 0.1502	998.234	1537.6	0.645
313.15 K, m1 = 0.3004	1004.13	1545.7	0.665
313.15 K, m1 = 0.5002	1011.76	1556.5	0.687
313.15 K, m1 = 0.7001	–	1567.3	0.701

O [water]
[2]
Conditions	viscosity [mPa·s]
293.15 K	1.003
298.15 K	0.89
303.15 K	0.798
308.15 K	0.72
313.15 K	0.653

Conditions	speed of sound [m/s]
[2], 313.15 K, Frequency=3 MHz, Sing-around technique in a fixed-path interferometer	1529
